Measurements published in PMC6968676, “Inhibition survey with phenolic compounds against the δ- and η-class carbonic anhydrases from the marine diatom thalassiosira weissflogii and protozoan Plasmodium falciparum” (Journal of Enzyme Inhibition and Medicinal Chemistry, 2019).

Biological target: T1, TweCA (TweCAδ) (Conticribra weissflogii, UniProt Q5U9J1)
T1 construct: gene ca1; recombinant, obtained in-house as reported earlier
T1 sequence (Q5U9J1 1-281): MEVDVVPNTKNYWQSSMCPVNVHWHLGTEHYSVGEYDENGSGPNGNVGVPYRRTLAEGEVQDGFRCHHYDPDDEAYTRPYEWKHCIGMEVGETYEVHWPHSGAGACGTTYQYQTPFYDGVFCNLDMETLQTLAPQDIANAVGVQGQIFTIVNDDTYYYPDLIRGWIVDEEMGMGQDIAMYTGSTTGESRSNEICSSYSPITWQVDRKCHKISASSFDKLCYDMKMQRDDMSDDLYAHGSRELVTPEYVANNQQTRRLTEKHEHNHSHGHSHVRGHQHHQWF
Experiment: stopped-flow CO2 hydration assay
Format: biochemical

SMILES	Ki
O=C(O)/C=C/c1ccc(O)cc1 [compound 21, R = 4-(CHCHCOOH)]	14.5 µM
Nc1ccc(O)c(Cl)c1 [compound 14, R = 4-NH2-2-Cl]	> 100 µM
O=C(O)c1ccc(O)c(O)c1 [compound 18, R = 4-COOH-2-OH]	4.9 µM
O=C(O)c1ccc(O)cc1 [compound 11, R = 4-COOH]	1.4 µM
Oc1cccc(O)c1 [compound 3, R = 3-OH]	48.2 µM
O=C(O)c1ccccc1O [compound 10, R = 2-COOH]	0.95 µM
Nc1cccc(O)c1 [compound 6, R = 3-NH2]	65.4 µM
Oc1ccc(O)cc1 [compound 4, R = 4-OH]	34.9 µM
O=C(O)c1c(O)cccc1O [compound 19, R = 2-COOH-3-OH]	2.7 µM
OCc1ccc(O)cc1 [compound 12, R = 4-CH2OH]	35.9 µM
CC(=O)Nc1ccc(O)cc1 [compound 8, R = 4-NHCOCH3]	7.9 µM
O=C(O)/C=C/c1ccc(O)c(O)c1 [compound 22, R = 2-OH-4-(CHCHCOOH)]	5.9 µM
N#Cc1ccc(O)cc1 [compound 9, R = 4-CN]	56.9 µM
Nc1cc(O)ccc1Cl [compound 13, R = 3-NH2-4-Cl]	> 100 µM
O=C(O)c1cc(O)ccc1O [compound 20, R = 2-COOH-4-OH]	0.81 µM
Oc1c(F)cc(F)cc1F [compound 17, R = 2,4,6-triF]	13.8 µM
Nc1ccc(O)cc1 [compound 7, R = 4-NH2]	17.6 µM
Oc1cc(F)ccc1F [compound 15, R = 2,5-diF]	30.7 µM
Oc1cc(F)cc(F)c1 [compound 16, R = 3,5-diF]	21 µM
Oc1ccccc1 [compound 1, phenol (R = H)]	52.3 µM
Oc1ccc(O)c(O)c1 [compound 5, R = 2,4-diOH]	2 µM
Oc1ccccc1O [compound 2, R = 2-OH]	4.5 µM
